Reference: PubChem BioAssay AID1259407 (Chemical Carcinogenesis Research Information System (CCRIS), 2018)
The source made the active and inactive calls. How the calls were made is not given here.

System: CCRIS mutagenicity, Ames/micronucleus/aberration tests
Assay: CCRIS mutagenicity studies
[1] = Test System: AMES SALMONELLA TYPHIMURIUM, Strain/Indicator: TA98, Metabolic Activation: NONE, Method: STANDARD PLATE
[2] = Test System: AMES SALMONELLA TYPHIMURIUM, Strain/Indicator: TA98, Metabolic Activation: RAT, LIVER, S-9, AROCLOR 1254, Method: STANDARD PLATE
[3] = Test System: AMES SALMONELLA TYPHIMURIUM, Strain/Indicator: TA100, Metabolic Activation: NONE, Method: STANDARD PLATE
[4] = Test System: AMES SALMONELLA TYPHIMURIUM, Strain/Indicator: TA100, Metabolic Activation: RAT, LIVER, S-9, AROCLOR 1254, Method: STANDARD PLATE
[5] = Test System: AMES SALMONELLA TYPHIMURIUM, Strain/Indicator: TA1535, Metabolic Activation: NONE, Method: STANDARD PLATE
[6] = Test System: AMES SALMONELLA TYPHIMURIUM, Strain/Indicator: TA1535, Metabolic Activation: RAT, LIVER, S-9, AROCLOR 1254, Method: STANDARD PLATE
[7] = Test System: AMES SALMONELLA TYPHIMURIUM, Strain/Indicator: TA1537, Metabolic Activation: NONE, Method: STANDARD PLATE
[8] = Test System: AMES SALMONELLA TYPHIMURIUM, Strain/Indicator: TA1537, Metabolic Activation: RAT, LIVER, S-9, AROCLOR 1254, Method: STANDARD PLATE
[9] = Test System: AMES SALMONELLA TYPHIMURIUM, Strain/Indicator: TA98, Metabolic Activation: NONE, Method: PREINCUBATION
[10] = Test System: AMES SALMONELLA TYPHIMURIUM, Strain/Indicator: TA100, Metabolic Activation: NONE, Method: PREINCUBATION

## Cc1cccnc1
Test System: AMES SALMONELLA TYPHIMURIUM, Strain/Indicator: TA97, Metabolic Activation: NONE, Method: STANDARD PLATE
  mutagenic call: inactive; negative
Test System: AMES SALMONELLA TYPHIMURIUM, Strain/Indicator: TA97, Metabolic Activation: RAT, LIVER, S-9, AROCLOR 1254, Method: STANDARD PLATE
  mutagenic call: inactive; negative
[1]
  mutagenic call: inactive; negative
[2]
  mutagenic call: inactive; negative
[3]
  mutagenic call: inactive; negative
[4]
  mutagenic call: inactive; negative
Test System: AMES SALMONELLA TYPHIMURIUM, Strain/Indicator: TA102, Metabolic Activation: NONE, Method: STANDARD PLATE
  mutagenic call: inactive; negative
Test System: AMES SALMONELLA TYPHIMURIUM, Strain/Indicator: TA102, Metabolic Activation: RAT, LIVER, S-9, AROCLOR 1254, Method: STANDARD PLATE
  mutagenic call: inactive; negative

## COc1c(OC)c2occc2c2oc(=O)ccc12
[1]
  mutagenic call: inactive; negative
Test System: AMES SALMONELLA TYPHIMURIUM, Strain/Indicator: TA98, Metabolic Activation: RAT, LIVER, S-9, PHENOBARBITAL, Method: STANDARD PLATE
  mutagenic call: inactive; negative

## CCCS(=O)(=O)n1ncc(Cl)c(Cl)c1=O
[1]
  mutagenic call: inactive; negative
[2]
  mutagenic call: inactive; negative
[3]
  mutagenic call: active; positive
[4]
  mutagenic call: active; positive
[5]
  mutagenic call: inactive; negative
[6]
  mutagenic call: active; positive
[7]
  mutagenic call: inactive; negative
[8]
  mutagenic call: inactive; negative

## Cc1nc2ccc(N)c(C)c2nc1C
[9]
  mutagenic call: inactive; negative
Test System: AMES SALMONELLA TYPHIMURIUM, Strain/Indicator: TA98, Metabolic Activation: RAT, LIVER, S-9, PCB, Method: PREINCUBATION
  mutagenic call: active; positive
[10]
  mutagenic call: inactive; negative
Test System: AMES SALMONELLA TYPHIMURIUM, Strain/Indicator: TA100, Metabolic Activation: RAT, LIVER, S-9, PCB, Method: PREINCUBATION
  mutagenic call: active; positive

## CC(=O)[O-].CC(=O)[O-].[Cd+2]
End Point: IN VITRO MICRONUCLEUS, Test System: CHL/IU CELLS, Metabolic Activation: NONE
  mutagenic call: active; positive
Test System: CHINESE HAMSTER OVARY, Strain/Indicator: CHO-K1 (HPRT)/6-THIOGUANINE, Metabolic Activation: NONE
  mutagenic call: active; positive

## [Cl-].[Cl-].[Cl-].[Cr+3].c1cnc2c(c1)ccc1cccnc12.c1cnc2c(c1)ccc1cccnc12
[3]
  mutagenic call: active; positive

## CC(Cl)CCl (centres undefined)
End Point: IN VITRO CHROMOSOMAL ABERRATIONS, Test System: CHINESE HAMSTER OVARY CELLS, Metabolic Activation: RAT, LIVER, S-9, AROCLOR 1254
  mutagenic call: active; positive
[9]
  mutagenic call: inactive; negative
Test System: AMES SALMONELLA TYPHIMURIUM, Strain/Indicator: TA98, Metabolic Activation: RAT LIVER S-9, PHENOBARBITAL AND BETA-NAPHTHOFLAVONE, Method: PREINCUBATION
  mutagenic call: inactive; negative
[10]
  mutagenic call: inactive; negative
[3]
  mutagenic call: active; positive
Test System: AMES SALMONELLA TYPHIMURIUM, Strain/Indicator: TA100, Metabolic Activation: RAT LIVER S-9, PHENOBARBITAL AND BETA-NAPHTHOFLAVONE, Method: PREINCUBATION
  mutagenic call: inactive; negative
[4]
  mutagenic call: active; positive
Test System: AMES SALMONELLA TYPHIMURIUM, Strain/Indicator: TA102, Metabolic Activation: NONE, Method: PREINCUBATION
  mutagenic call: inactive; negative
Test System: AMES SALMONELLA TYPHIMURIUM, Strain/Indicator: TA102, Metabolic Activation: RAT LIVER S-9, PHENOBARBITAL AND BETA-NAPHTHOFLAVONE, Method: PREINCUBATION
  mutagenic call: inactive; negative
Test System: AMES SALMONELLA TYPHIMURIUM, Strain/Indicator: TA104, Metabolic Activation: NONE, Method: PREINCUBATION
  mutagenic call: inactive; negative
Test System: AMES SALMONELLA TYPHIMURIUM, Strain/Indicator: TA104, Metabolic Activation: RAT LIVER S-9, PHENOBARBITAL AND BETA-NAPHTHOFLAVONE, Method: PREINCUBATION
  mutagenic call: inactive; negative
Test System: AMES SALMONELLA TYPHIMURIUM, Strain/Indicator: TA1535, Metabolic Activation: NONE, Method: PREINCUBATION
  mutagenic call: inactive; negative
[5]
  mutagenic call: active; positive
Test System: AMES SALMONELLA TYPHIMURIUM, Strain/Indicator: TA1535, Metabolic Activation: RAT LIVER S-9, PHENOBARBITAL AND BETA-NAPHTHOFLAVONE, Method: PREINCUBATION
  mutagenic call: inactive; negative
[6]
  mutagenic call: active; positive
Test System: AMES SALMONELLA TYPHIMURIUM, Strain/Indicator: TA1537, Metabolic Activation: NONE, Method: PREINCUBATION
  mutagenic call: inactive; negative
Test System: AMES SALMONELLA TYPHIMURIUM, Strain/Indicator: TA1537, Metabolic Activation: RAT LIVER S-9, PHENOBARBITAL AND BETA-NAPHTHOFLAVONE, Method: PREINCUBATION
  mutagenic call: inactive; negative
Test System: E.COLI, Strain/Indicator: WP2UVRA/PKM101, Metabolic Activation: NONE, Method: PREINCUBATION
  mutagenic call: inactive; negative
Test System: E.COLI, Strain/Indicator: WP2UVRA/PKM101, Metabolic Activation: RAT LIVER S-9, PHENOBARBITAL AND BETA-NAPHTHOFLAVONE, Method: PREINCUBATION
  mutagenic call: inactive; negative
Test System: E.COLI, Strain/Indicator: WP2UVRA, Metabolic Activation: NONE, Method: PREINCUBATION
  mutagenic call: inactive; negative
Test System: E.COLI, Strain/Indicator: WP2UVRA, Metabolic Activation: RAT LIVER S-9, PHENOBARBITAL AND BETA-NAPHTHOFLAVONE, Method: PREINCUBATION
  mutagenic call: inactive; negative

## N=c1ccc2nc3ccc(N)cc3sc-2c1
[1]
  mutagenic call: active; positive
[2]
  mutagenic call: active; positive
[5]
  mutagenic call: inactive; negative
[6]
  mutagenic call: inactive; negative
[7]
  mutagenic call: inactive; negative
[8]
  mutagenic call: inactive; negative
Test System: AMES SALMONELLA TYPHIMURIUM, Strain/Indicator: TA1538, Metabolic Activation: NONE, Method: STANDARD PLATE
  mutagenic call: active; positive
Test System: AMES SALMONELLA TYPHIMURIUM, Strain/Indicator: TA1538, Metabolic Activation: RAT, LIVER, S-9, AROCLOR 1254, Method: STANDARD PLATE
  mutagenic call: active; positive
